Columns and labels:
[1] = Pharmacokinetic study in healthy volunteers after oral fixed-combination tablet, plasma measured by USA-DMSPE-HPLC-UV; format: in vivo; settings: human; for half-life: read-out: T ½ (converted)
Description: First of all, some frozen human plasma samples were allowed to be thawed at room temperature (23 ± 0.5 °C) and afterwards they were placed into centrifuge tubes. Acetonitrile was applied as a deproteinizing agent to precipitate all proteins existing in plasma. In this regard, 1.9 mL of plasma was spiked with 100.0 μL of working standard solutions to get the suitable concentration level of DIC and FEB, then, to all tubes, 2.0 mL acetonitrile was added. All the biological samples were vortexed for 3 min for complete mixing and followed with centrifugation at 5000 rpm for 4 min. For evaporating the acetonitrile content of each real sample, the tube containing the spiked sample was placed under a stream of nitrogen. To adjust the pH of media, 4.0 mL buffer solution at pH 5.0 was added to real sample. Eventually, 5.0 mL of the resultant spiked sample was subjected to the extraction and measurement protocols for further evaluations.
5.0 mL of the prepared spiked human plasma was placed into a centrifuge tube and then 20.0 mg of synthesized hybrid sorbent was added to the tube. For ensuring the complete dispersion of the supermagnetic hybrid sorbent into the solution, ultrasonic irradiation was utilized for 6 min. As the sorbent is dispersed through the sample, the target drugs are adsorbed on the surface of it. Subsequently, an external magnetic field composed of neodymium (Nd), iron (Fe) and boron (B) (0.8 tesla) was applied to separate the hybrid sorbent from media and the free drug sample was removed by a pipette. In order to desorb the target drugs from the extractor, it was washed with 1.5 mL with acetonitrile in three steps (0.5 mL in each step) while ultrasonic irradiation was applied for 3 min. Nd-Fe-B-Nd magnet was used again in this step and then the solution was separated and dried under a stream of nitrogen. After collecting the remaining material, which contains DIC and FEB, was dissolved in 50.0 μL of the mobile phase of HPLC and 20.0 μL of it was injected into the separation column and further measurements were carried out.
The volunteer's blood were collected after 0 to 4 and 8, 12 and 24 h of taking the drug and the samples were transferred to the polypropylene tubes containing ethylenediaminetetraacetic acid and centrifuged to achieve the required human plasma, after that the samples were kept at −18 °C. […] The samples were analyzed by means of the current method and the average concentration of each drug versus time was drawn. In this assessment, some major pharmacokinetic features including Tmax, Cmax, AUC0–t, AUC0–∞, and T½ were calculated and the results were summarized in Table 3.

[2] = design: method as in doi:10.1016/j.microc.2019.03.022, PMID 28953473; settings: reported values; cited from earlier work

Row | SMILES | Tmax [1] | half-life [1] | pKa [2]
1 | O=C(O)Cc1ccccc1Nc1c(Cl)cccc1Cl [Diclofenac, 2-(2,6-dichloranilino)phenylacetic acid] | 2.88 ± 0.3 h | 306 ± 66 min | –
2 | Cc1nc(-c2ccc(OCC(C)C)c(C#N)c2)sc1C(=O)O [Febuxostat, 2-(3-cyano-4-isobutoxyphenyl)-4-methyl-1,3-thiazole-5-carboxylic acid] | 3.15 ± 0.27 h | 378 ± 90 min | 3.3
